Test system: P12-Ichikawa
Assay: cell viability relative to DMSO control; higher = less cytotoxic
Conditions: 48 h
In short: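 Cells were incubated for 48 h at 37°C before CellTiter-Glo One luminescence was read. The cells were NOMO1 or SEM (500 cells/well) or P12-Ichikawa (1000 cells/well) leukemia cells, adapted for at least four passages in each medium and seeded in 1536-well plates (5 μl). Dosing used library compounds in DMSO applied by pin over 11 threefold points, 47 μM to 0.79 nM. Viability is the per-plate percentage of DMSO wells, with cell-free wells as background.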

[1] = HPLM + 10% dialyzed FBS, 0.000781 µM
[2] = HPLM + 10% dialyzed FBS, 0.00234 µM
[3] = HPLM + 10% dialyzed FBS, 0.00702 µM
[4] = HPLM + 10% dialyzed FBS, 0.0211 µM
[5] = HPLM + 10% dialyzed FBS, 0.0632 µM
[6] = HPLM + 10% dialyzed FBS, 0.19 µM
[7] = HPLM + 10% dialyzed FBS, 0.569 µM
[8] = HPLM + 10% dialyzed FBS, 1.71 µM
[9] = HPLM + 10% dialyzed FBS, 5.12 µM
[10] = HPLM + 10% dialyzed FBS, 15.4 µM
[11] = HPLM + 10% dialyzed FBS, 46.1 µM
[12] = RPMI 5 mM glucose + 10% FBS, 0.000781 µM
[13] = RPMI 5 mM glucose + 10% FBS, 0.00234 µM
[14] = RPMI 5 mM glucose + 10% FBS, 0.00702 µM
[15] = RPMI 5 mM glucose + 10% FBS, 0.0211 µM
[16] = RPMI 5 mM glucose + 10% FBS, 0.0632 µM
[17] = RPMI 5 mM glucose + 10% FBS, 0.19 µM
[18] = RPMI 5 mM glucose + 10% FBS, 0.569 µM
[19] = RPMI 5 mM glucose + 10% FBS, 1.71 µM
[20] = RPMI 5 mM glucose + 10% FBS, 5.12 µM
[21] = RPMI 5 mM glucose + 10% FBS, 15.4 µM
[22] = RPMI 5 mM glucose + 10% FBS, 46.1 µM
[23] = RPMI 5 mM glucose + 10% dialyzed FBS, 0.000781 µM
[24] = RPMI 5 mM glucose + 10% dialyzed FBS, 0.00234 µM
[25] = RPMI 5 mM glucose + 10% dialyzed FBS, 0.00702 µM
[26] = RPMI 5 mM glucose + 10% dialyzed FBS, 0.0211 µM
[27] = RPMI 5 mM glucose + 10% dialyzed FBS, 0.0632 µM
[28] = RPMI 5 mM glucose + 10% dialyzed FBS, 0.19 µM
[29] = RPMI 5 mM glucose + 10% dialyzed FBS, 0.569 µM
[30] = RPMI 5 mM glucose + 10% dialyzed FBS, 1.71 µM
[31] = RPMI 5 mM glucose + 10% dialyzed FBS, 5.12 µM
[32] = RPMI 5 mM glucose + 10% dialyzed FBS, 15.4 µM
[33] = RPMI 5 mM glucose + 10% dialyzed FBS, 46.1 µM

Row | SMILES | cell viability [1] [%] | cell viability [2] [%] | cell viability [3] [%] | cell viability [4] [%] | cell viability [5] [%] | cell viability [6] [%] | cell viability [7] [%] | cell viability [8] [%] | cell viability [9] [%] | cell viability [10] [%] | cell viability [11] [%] | cell viability [12] [%] | cell viability [13] [%] | cell viability [14] [%] | cell viability [15] [%] | cell viability [16] [%] | cell viability [17] [%] | cell viability [18] [%] | cell viability [19] [%] | cell viability [20] [%] | cell viability [21] [%] | cell viability [22] [%] | cell viability [23] [%] | cell viability [24] [%] | cell viability [25] [%] | cell viability [26] [%] | cell viability [27] [%] | cell viability [28] [%] | cell viability [29] [%] | cell viability [30] [%] | cell viability [31] [%] | cell viability [32] [%] | cell viability [33] [%]
1 | Clc1ccc(C(Cn2ccnc2)OCc2ccc(Sc3ccccc3)cc2)c(Cl)c1 (configuration not stated) | 103 | 110 | 107 | 111 | 117 | 110 | 118 | 115 | 111 | 106 | 9.24 | 115 | 120 | 109 | 115 | 116 | 108 | 110 | 117 | 109 | 105 | 14.3 | 111 | 102 | 111 | 107 | 107 | 104 | 105 | 101 | 102 | 101 | 19.5
2 | CN(C)c1ccccc1CN1CCCN(Cc2ccccc2N(C)C)C1c1ccncc1 | 84.7 | 94.7 | 101 | 11.9 | 102 | 100 | 108 | 111 | 108 | 78.3 | 94.1 | 84 | 90.7 | 94 | 11 | 93.7 | 99 | 108 | 105 | 103 | 102 | 80.2 | 82.3 | 88.5 | 82.8 | 19.7 | 92.9 | 91.7 | 91.1 | 93.4 | 101 | 100 | 71.9
3 | NCC/1=C/NC(=S)N1[C@H]2CCC3=C(F)C=C(F)C=C3C2 | 127 | 114 | 114 | 126 | 123 | 121 | 119 | 121 | 113 | 111 | 92.5 | 134 | 125 | 124 | 120 | 129 | 132 | 139 | 127 | 121 | 116 | 92.5 | 124 | 117 | 128 | 126 | 120 | 120 | 119 | 119 | 117 | 110 | 72.7
4 | CCOC(=O)c1c(/C(C#N)=C\N)c2ccc(Cl)c(Cl)c2n1C | 90.1 | 94.9 | 84.9 | 97.5 | 91.7 | 92.2 | 92.1 | 91.6 | 84.7 | 83 | 91.7 | 88.1 | 88.7 | 85.5 | 94.8 | 83.2 | 86.3 | 81.1 | 91 | 82.8 | 81.2 | 87.4 | 84.5 | 86.2 | 89.9 | 92.8 | 90.6 | 96.9 | 87.9 | 88.7 | 89 | 92.8 | 90.8
5 | COc1cc([C@@H]2c3cc4c(cc3[C@@H](O)C3COC(=O)C32)OCO4)cc(OC)c1O (some centres not stated) | 86.8 | 92.3 | 88.4 | 9.03 | 95.5 | 38.3 | 9.82 | 8.57 | 5.22 | 5.25 | 4.78 | 80.2 |  | 92.1 | 10.5 | 102 | 56.8 | 14.4 | 7.77 | 6.85 | 4.81 | 5.33 | 77.1 | 91.5 | 94.6 | 22.6 | 94.5 | 63.7 | 19 | 12.9 | 9.44 | 7.81 | 5.82
6 | NNC(=O)c1ccncc1 | 111 | 124 | 119 | 121 | 121 | 127 | 127 | 117 | 101 | 103 | 85.7 | 106 | 107 | 111 | 124 | 111 | 114 | 122 | 120 | 116 | 107 | 84.7 | 115 | 122 | 113 | 119 | 116 | 127 | 118 | 121 | 103 | 108 | 76.2
7 | CC=CC1=C(C(=O)O)N2C(=O)[C@@H](NC(=O)[C@H](N)c3ccc(O)cc3)[C@H]2SC1.O | 97.8 | 110 | 121 | 105 | 126 | 90 | 116 | 111 | 113 | 13.8 | 15 | 88.6 | 103 | 111 | 109 | 120 | 115 | 104 | 112 | 107 | 17.7 | 13.7 | 100 | 108 | 107 | 113 | 118 | 109 | 110 | 116 | 114 | 45.3 | 18.8
8 | COc1cc([S+](C)(=O)[O-])ccc1Nc1nc2ccc(-c3ccc(NC(=O)[C@H](C)c4ccc(F)cc4)cc3)cn2n1 | 109 | 106 | 108 | 110 | 120 | 117 | 120 | 49 | 56.4 | 61.4 | 65 | 103 | 116 | 118 | 108 | 113 | 117 | 114 | 37.2 | 55.1 | 56.4 | 57.1 |  |  |  |  |  |  |  |  |  |  | 

From the supplement of paper PMC11451515
